From patent US9926304B2, “1-(arylmethyl)quinazoline-2,4(1H,3H)-diones as PARP inhibitors and the use thereof” (Impact Therapeutics, Inc., priority 2011, dated 2018)

How the values were obtained:
[1] = system: Human breast cancer cell line T47D; assay: Cell based caspase-3 activity assay: potentiation of MMS induced apoptosis; settings: Homo sapiens, T47D, 24 h, T47D cells, 11.1 μg/ml MMS, 24 hours, intracellular caspase-3 activity; read-out: EC50 (nM), potentiation of the apoptosis inducing activity of MMS
In short: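 T47D cells were exposed for 24 h to compound plus a minimally apoptotic MMS dose (medium containing 11.1 μg/ml MMS). Lysates were incubated 3 h at 37 °C with (Ac-DEVD)2-R110 caspase-3 substrate (20 μM in added buffer) and read at ex 496/em 520 nm. EC50 came from a sigmoidal fit of RFU versus log concentration.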

[2] = system: BRCA-2 deficient CAPAN-1 human pancreatic cancer cells; assay: MTT based cell viability assay: growth inhibition of BRCA-2 deficient CAPAN-1 cells; settings: 240 h, compound alone, 10 day assay
PARP-1 enzyme = target: T1, PARP-1 enzyme (Homo sapiens, UniProt P09874); assay: PARP-1 enzymatic activity assay (Trevigen 96-well kit 4676-096-K); assay type: biochemical; settings: 0.5 unit PARP-1, histone pre-coated plate, 60 min at room temperature; read-out: IC50 (nM), inhibitory effect on PARP-1 enzymatic activity
T1 construct: purchased Trevigen, Inc. 4676-096-K
T1 sequence (P09874 whole entry): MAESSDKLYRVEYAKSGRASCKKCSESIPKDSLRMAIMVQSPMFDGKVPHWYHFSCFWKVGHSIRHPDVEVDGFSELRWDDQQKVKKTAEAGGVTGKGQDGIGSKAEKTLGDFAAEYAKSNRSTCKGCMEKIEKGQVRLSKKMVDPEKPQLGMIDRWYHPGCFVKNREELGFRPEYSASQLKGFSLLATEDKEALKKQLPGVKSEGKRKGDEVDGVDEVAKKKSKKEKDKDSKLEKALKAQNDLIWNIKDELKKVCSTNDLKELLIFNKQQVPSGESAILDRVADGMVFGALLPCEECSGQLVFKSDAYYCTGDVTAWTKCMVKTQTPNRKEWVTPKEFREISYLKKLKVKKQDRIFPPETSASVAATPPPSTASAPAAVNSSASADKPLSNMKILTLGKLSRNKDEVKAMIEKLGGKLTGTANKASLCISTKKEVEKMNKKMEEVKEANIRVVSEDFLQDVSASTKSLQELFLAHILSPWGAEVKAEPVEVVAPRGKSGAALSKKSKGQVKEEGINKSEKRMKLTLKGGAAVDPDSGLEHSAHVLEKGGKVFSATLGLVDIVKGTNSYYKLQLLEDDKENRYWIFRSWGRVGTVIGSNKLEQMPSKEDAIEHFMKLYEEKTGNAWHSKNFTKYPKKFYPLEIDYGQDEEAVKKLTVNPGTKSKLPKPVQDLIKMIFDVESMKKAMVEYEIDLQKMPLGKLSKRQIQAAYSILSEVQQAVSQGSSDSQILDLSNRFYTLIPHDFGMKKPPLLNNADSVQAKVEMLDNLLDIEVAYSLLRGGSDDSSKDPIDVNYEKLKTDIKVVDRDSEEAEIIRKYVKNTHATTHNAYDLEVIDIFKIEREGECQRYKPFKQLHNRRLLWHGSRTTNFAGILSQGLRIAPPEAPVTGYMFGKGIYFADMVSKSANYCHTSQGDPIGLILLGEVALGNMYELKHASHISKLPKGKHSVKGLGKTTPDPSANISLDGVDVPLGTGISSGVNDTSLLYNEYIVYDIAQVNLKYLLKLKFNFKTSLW
Source text: Measurement of the inhibitory effect of 1-(3-(4-(pyrimidin-2-yl)piperazine-1-carbonyl)benzyl)quinazoline-2,4(1H,3H)-dione and analogs on PARP-1 enzymatic activity
Briefly, PARP-1 catalyzes the NAD-dependent addition of poly(ADP-ribose) to its nuclear protein substrates such as histones. The assay kit measures the incorporation of biotynylated poly(ADP-ribose) onto histone proteins in a 96-well format.

[3] = system: SW620 human colorectal cancer cells; assay: MTT based cell viability assay: potentiation of the growth inhibiting activity of MMS; settings: Homo sapiens, SW-620, 120 h, read-out: IC50 (nM), potentiation of the growth inhibiting activity of MMS, SW620 cells, 1.7 μg/ml MMS, 5 days (120 hours), MTT

Compound	EC50 [1] [nM]	IC50 [2] [nM]	IC50 (PARP-1 enzyme) [nM]	IC50 [3] [nM]
O=C(c1cccc(Cn2c(=O)[nH]c(=O)c3ccccc32)c1)N1CCN(c2ccccn2)CC1 [Example 3, 1-(3-(4-(Pyridin-2-yl)piperazine-1-carbonyl)benzyl)quinazoline-2,4(1H,3H)-dione]	56	445	4.2	90
O=C(c1cc(Cn2c(=O)[nH]c(=O)c3c(F)cccc32)ccc1F)N1CCN(c2ncccn2)CC1 [Example 132, 5-Fluoro-1-(4-fluoro-3-(4-(pyrimidin-2-yl)piperazine-1-carbonyl)benzyl)quinazoline-2,4(1H,3H)-dione]	0.93	17	1.19	4.1
O=C(c1cccc(Cn2c(=O)[nH]c(=O)c3c(F)cccc32)c1)N1CCN(c2ncccn2)CC1 [Example 127, 5-Fluoro-1-(3-(4-(pyrimidin-2-yl)piperazine-1-carbonyl)benzyl)quinazoline-2,4(1H,3H)-dione]	4.1	44	0.37	13
O=C(c1cc(Cn2c(=O)[nH]c(=O)c3c(F)cccc32)ccc1F)N1CCN(c2nccs2)CC1 [Example 189, 5-Fluoro-1-(4-fluoro-3-(4-(thiazol-2-yl)piperazine-1-carbonyl)benzyl)quinazoline-2,4(1H,3H)-dione]		736	2.2	10
O=C(c1cc(Cn2c(=O)[nH]c(=O)c3c(F)cccc32)ccc1F)N1CCN(c2ccccn2)CC1 [Example 135, 5-Fluoro-1-(4-fluoro-3-(4-(pyridin-2-yl)piperazine-1-carbonyl)benzyl)quinazoline-2,4(1H,3H)-dione]	9.8		1.74	6.8
O=C(c1cccs1)N1CCN(C(=O)c2cc(Cn3c(=O)[nH]c(=O)c4c(Cl)cccc43)ccc2F)CC1 [Example 107, 5-Chloro-1-(4-fluoro-3-(4-(thiophene-2-carbonyl)piperazine-1-carbonyl)benzyl)quinazoline-2,4(1H,3H)-dione]	9.5	161		6.3
O=C(c1cc(Cn2c(=O)[nH]c(=O)c3cc(Cl)ccc32)ccc1F)N1CCN(c2ncccn2)CC1 [Example 117, 6-Chloro-1-(4-fluoro-3-(4-(pyrimidin-2-yl)piperazine-1-carbonyl)benzyl)quinazoline-2,4(1H,3H)-dione]	5.8	39		5.1
O=C(c1ccc(F)c(Cn2c(=O)[nH]c(=O)c3c(F)cccc32)c1)N1CCN(c2ncccn2)CC1 [Example 154, 5-Fluoro-1-(6-fluoro-3-(4-(pyrimidin-2-yl)piperazine-1-carbonyl)benzyl)quinazoline-2,4(1H,3H)-dione]	6.7	56		7.3
O=C(c1cccs1)N1CCN(C(=O)c2cc(Cn3c(=O)[nH]c(=O)c4c(F)cccc43)ccc2F)CC1 [Example 136, 5-Fluoro-1-(4-fluoro-3-(4-(thiophene-2-carbonyl)piperazine-1-carbonyl)benzyl)quinazoline-2,4(1H,3H)-dione]	3.2	40		7.1
O=C(c1cc(F)cc(Cn2c(=O)[nH]c(=O)c3c(F)cccc32)c1)N1CCN(c2ncccn2)CC1 [Example 176, 5-Fluoro-1-(5-fluoro-3-(4-(pyrimidin-2-yl)piperazine-1-carbonyl)benzyl)quinazoline-2,4(1H,3H)-dione]	10	187		15

The next lines start with the values.

EC50 [1] [nM]	IC50 [2] [nM]	IC50 (PARP-1 enzyme) [nM]	IC50 [3] [nM]	Compound
5.7	318	0.88	6.8	O=C(c1cc(Cn2c(=O)[nH]c(=O)c3ccccc32)ccc1F)N1CCN(C(=O)C2CCC2)CC1 [Example 44, 1-(3-(4-(Cyclobutylcarbonyl)piperazine-1-carbonyl)-4-fluorobenzyl)quinazoline-2,4(1H,3H)-dione]
4	36	1.3	16	O=C(c1cccc(Cn2c(=O)[nH]c(=O)c3cc(F)ccc32)c1)N1CCN(c2ncccn2)CC1 [Example 139, 6-Fluoro-1-(3-(4-(pyrimidin-2-yl)piperazine-1-carbonyl)benzyl)quinazoline-2,4(1H,3H)-dione]
39		2.3	102	O=C(c1cccc(Cn2c(=O)[nH]c(=O)c3ccccc32)c1)N1CCN(C(=O)C2CCCC2)CC1 [Example 14, 1-(3-(4-(Cyclopentylcarbonyl)piperazine-1-carbonyl)benzyl)quinazoline-2,4(1H,3H)-dione]
20	1050		117	O=C(c1cccc(Cn2c(=O)[nH]c(=O)c3c(Cl)cccc32)c1)N1CCN(C(=O)C2CCCC2)CC1 [Example 101, 5-Chloro-1-(3-(4-(cyclopentylcarbonyl)piperazine-1-carbonyl)benzyl)quinazoline-2,4(1H,3H)-dione]
11	111		15	O=C(c1ccc(F)c(Cn2c(=O)[nH]c(=O)c3cc(Cl)ccc32)c1)N1CCN(c2ncccn2)CC1 [Example 123, 6-Chloro-1-(6-fluoro-3-(4-(pyrimidin-2-yl)piperazine-1-carbonyl)benzyl)quinazoline-2,4(1H,3H)-dione]
3.1	54		0.82	O=C(c1cc(Cn2c(=O)[nH]c(=O)c3cc(Cl)ccc32)ccc1F)N1CCN(C(=O)C2CCCC2)CC1 [Example 118, 6-Chloro-1-(3-(4-(cyclopentylcarbonyl)piperazine-1-carbonyl)-4-fluorobenzyl)quinazoline-2,4(1H,3H)-dione]
12	442		37	O=C(c1cccc(Cn2c(=O)[nH]c(=O)c3c(F)cccc32)c1)N1CCN(C(=O)C2CCCC2)CC1 [Example 128, 1-(3-(4-(Cyclopentylcarbonyl)piperazine-1-carbonyl)benzyl)-5-fluoroquinazoline-2,4(1H,3H)-dione]
6	73		15	O=C(c1cccc(Cn2c(=O)[nH]c(=O)c3cc(F)ccc32)c1)N1CCN(C(=O)C2CCCC2)CC1 [Example 143, 1-(3-(4-(Cyclopentylcarbonyl)piperazine-1-carbonyl)benzyl)-6-fluoroquinazoline-2,4(1H,3H)-dione]
29	1740		182	O=C(c1cc(Cn2c(=O)[nH]c(=O)c3ccccc32)ccc1F)N1CCN(C(=O)C2CC2)CC1 [Example 40, 1-(3-(4-(Cyclopropylcarbonyl)piperazine-1-carbonyl)-4-fluorobenzyl)quinazoline-2,4(1H,3H)-dione]
803	> 10000		666	O=C(c1cccc(Cn2c(=O)[nH]c(=O)c3ccccc32)c1)N1CCN(C(=O)C2CC2)CC1 [Example 15, 1-(3-(4-(Cyclopropylcarbonyl)piperazine-1-carbonyl)benzyl)quinazoline-2,4(1H,3H)-dione]
5.1	121		13	O=C(c1ccc(F)c(Cn2c(=O)[nH]c(=O)c3cc(F)ccc32)c1)N1CCN(C(=O)C2CCCCC2)CC1 [Example 152, 1-(3-(4-(Cyclohexylcarbonyl)piperazine-1-carbonyl)-6-fluorobenzyl)-6-fluoroquinazoline-2,4(1H,3H)-dione]
